Experimental data from ChEMBL document CHEMBL3868587, “Heptaketides from an Endolichenic Fungus Biatriospora sp. and Their Antifungal Activity” (2016).
Values after ≈ are worked out from the molar mass of the structure shown. Active and inactive are the calls of the source. The calls are words filed in the database; no cut-off is given here.

Experiments:
[1] = test system: Candida albicans; assay: Antifungal activity against Candida albicans SC5314 by CLSI broth microdilution method; assay type: functional
[2] = Antifungal activity against fluconazole-resistant Candida albicans clinical isolate 24D by CLSI broth microdilution method; assay type: functional
[3] = Antifungal activity against fluconazole-resistant Candida albicans clinical isolate 18I by CLSI broth microdilution method; assay type: functional
[4] = Antifungal activity against fluconazole-resistant Candida albicans clinical isolate 142 by CLSI broth microdilution method; assay type: functional
[5] = Antifungal activity against fluconazole-resistant Candida albicans clinical isolate 144 by CLSI broth microdilution method; assay type: functional
[6] = Antifungal activity against fluconazole-resistant Candida albicans clinical isolate 145 by CLSI broth microdilution method; assay type: functional
[7] = Antifungal activity against fluconazole-resistant Candida albicans clinical isolate 147 by CLSI broth microdilution method; assay type: functional
[8] = test system: Candida albicans; assay: Inhibition of CDR1/CDR2 in Candida albicans clinical isolate 24D assessed as potentiation of fluconazole-induced antifungal activity by measuring fluconazole MIC80 up to 8 ug/ml after 24 hrs by XTT based broth microdilution assay (reference value: >128 ug/ml)
[9] = test system: Candida albicans; assay: Inhibition of CDR1/CDR2 in Candida albicans clinical isolate 18I assessed as potentiation of fluconazole-induced antifungal activity by measuring fluconazole MIC80 up to 8 ug/ml after 24 hrs by XTT based broth microdilution assay (reference value: >128 ug/ml)
[10] = test system: Candida albicans; assay: Inhibition of CDR1/CDR2 in Candida albicans clinical isolate 142 assessed as potentiation of fluconazole-induced antifungal activity by measuring fluconazole MIC80 up to 8 ug/ml after 24 hrs by XTT based broth microdilution assay (reference value: >128 ug/ml)
[11] = test system: Candida albicans; assay: Inhibition of CDR1/CDR2 in Candida albicans clinical isolate 144 assessed as potentiation of fluconazole-induced antifungal activity by measuring fluconazole MIC80 up to 8 ug/ml after 24 hrs by XTT based broth microdilution assay (reference value: >128 ug/ml)
[12] = test system: Candida albicans; assay: Inhibition of CDR1/CDR2 in Candida albicans clinical isolate 145 assessed as potentiation of fluconazole-induced antifungal activity by measuring fluconazole MIC80 up to 8 ug/ml after 24 hrs by XTT based broth microdilution assay (reference value: >128 ug/ml)
[13] = test system: Candida albicans; assay: Inhibition of CDR1/CDR2 in Candida albicans clinical isolate 147 assessed as potentiation of fluconazole-induced antifungal activity by measuring fluconazole MIC80 up to 8 ug/ml after 24 hrs by XTT based broth microdilution assay (reference value: >128 ug/ml)
[14] = test system: Candida albicans; assay: Inhibition of CDR1/CDR2 in Candida albicans clinical isolate 24D assessed as potentiation of fluconazole-induced antifungal activity up to 8 ug/ml after 24 hrs by broth microdilution checkerboard assay
[15] = test system: Candida albicans; assay: Inhibition of CDR1/CDR2 in Candida albicans clinical isolate 18I assessed as potentiation of fluconazole-induced antifungal activity up to 8 ug/ml after 24 hrs by broth microdilution checkerboard assay
[16] = test system: Candida albicans; assay: Inhibition of CDR1/CDR2 in Candida albicans clinical isolate 142 assessed as potentiation of fluconazole-induced antifungal activity up to 8 ug/ml after 24 hrs by broth microdilution checkerboard assay
[17] = test system: Candida albicans; assay: Inhibition of CDR1/CDR2 in Candida albicans clinical isolate 144 assessed as potentiation of fluconazole-induced antifungal activity up to 8 ug/ml after 24 hrs by broth microdilution checkerboard assay
[18] = test system: Candida albicans; assay: Inhibition of CDR1/CDR2 in Candida albicans clinical isolate 145 assessed as potentiation of fluconazole-induced antifungal activity up to 8 ug/ml after 24 hrs by broth microdilution checkerboard assay
[19] = test system: Candida albicans; assay: Inhibition of CDR1/CDR2 in Candida albicans clinical isolate 147 assessed as potentiation of fluconazole-induced antifungal activity up to 8 ug/ml after 24 hrs by broth microdilution checkerboard assay
[20] = test system: Candida albicans; assay: Inhibition of CDR1/CDR2 in Candida albicans clinical isolate 142 assessed as potentiation of fluconazole-induced antifungal activity measured as reduction in fluconazole MIC80 up to 8 ug/ml after 24 hrs by XTT based broth microdilution assay relative to fluconazole
[21] = test system: Candida albicans; assay: Inhibition of Candida albicans clinical isolate 24D CDR1/CDR2 assessed as inhibtion of glucose-induced rhodamine-123 efflux at 1 ug/ml measured after 30 mins by flow cytometry
[22] = test system: Candida albicans; assay: Inhibition of Candida albicans clinical isolate 24D CDR1/CDR2 assessed as inhibtion of glucose-induced rhodamine-123 efflux at 1 ug/ml measured after 30 mins by confocal microscopic analysis
[23] = Reduction in CDR1 mRNA expression in fluconazole-resistant Candida albicans clinical isolate 24D at 1 ug/ml measured after 12 hrs by qPCR method relative to control; assay type: functional
[24] = Reduction in CDR2 mRNA expression in fluconazole-resistant Candida albicans clinical isolate 24D at 1 ug/ml measured after 12 hrs by qPCR method relative to control; assay type: functional
[25] = Upregulation of CDR1 mRNA expression in fluconazole-resistant Candida albicans clinical isolate 24D at 2 ug/ml measured after 12 hrs by qPCR method relative to control; assay type: functional
[26] = Upregulation of CDR2 mRNA expression in fluconazole-resistant Candida albicans clinical isolate 24D at 2 ug/ml measured after 12 hrs by qPCR method relative to control; assay type: functional
[27] = Antifungal activity against Candida albicans clinical isolate 24D after 24 hrs in presence of fluconazole by XTT based broth microdilution assay; assay type: functional
[28] = Antifungal activity against Candida albicans clinical isolate 18I after 24 hrs in presence of fluconazole by XTT based broth microdilution assay; assay type: functional
[29] = test system: Candida albicans; assay: Antifungal activity against Candida albicans clinical isolate 142 after 24 hrs in presence of fluconazole by XTT based broth microdilution assay; assay type: functional; conditions: isolate 142, 24 h
[30] = test system: Candida albicans; assay: Antifungal activity against Candida albicans clinical isolate 144 after 24 hrs in presence of fluconazole by XTT based broth microdilution assay; assay type: functional; conditions: isolate 144, 24 h
[31] = test system: Candida albicans; assay: Antifungal activity against Candida albicans clinical isolate 145 after 24 hrs in presence of fluconazole by XTT based broth microdilution assay; assay type: functional; conditions: isolate 145, 24 h
[32] = Antifungal activity against Candida albicans clinical isolate 147 after 24 hrs in presence of fluconazole by XTT based broth microdilution assay; assay type: functional

`COc1cc(O)c2c(c1)C(=O)C1=C(C2=O)[C@H](OC)O[C@@H](C)C1` gave an MIC80 [1] of 64 µg/mL (≈ 210 µM).

For `CC1=CC2=C(CO1)C(=O)c1c(O)cc(O)cc1C2=O`, the MIC80 [1] was 32 µg/mL (≈ 124 µM).

For `OC(Cn1cncn1)(Cn1cncn1)c1ccc(F)cc1F` [FLUCONAZOLE], the MIC80 [1] was 2 µg/mL (≈ 6.53 µM), the MIC80 [2] was > 128 µg/mL and the MIC80 [3] was > 128 µg/mL. The MIC80 [4] was > 128 µg/mL, the MIC80 [5] was > 128 µg/mL and the MIC80 [6] was > 128 µg/mL. For the same compound, the MIC80 [7] was > 128 µg/mL, the MIC80 [8] was 2 µg/mL and the MIC80 [9] was 1 µg/mL. It also gave an MIC80 [10] of 0.5 µg/mL, an MIC80 [11] of 2 µg/mL and an MIC80 [12] of 4 µg/mL. It also gave an MIC80 [13] of 2 µg/mL.

For `COc1cc(O)c2c(c1)C(=O)C(CC(C)=O)=C(C)C2=O`, the MIC80 [1] was 64 µg/mL (≈ 233 µM).

`CN(C/C=C/C#CC(C)(C)C)Cc1cccc2ccccc12` [TERBINAFINE] showed an MIC80 [1] of 16 µg/mL (≈ 54.9 µM).

With `COc1cc(O)c2c(c1)-c1oc(C)cc1C(=O)C2=O` the MIC80 [1] was 16 µg/mL (≈ 62 µM), the MIC80 [2] was 16 µg/mL (≈ 62 µM) and the MIC80 [3] was 16 µg/mL (≈ 62 µM). The MIC80 [4] was 16 µg/mL (≈ 62 µM), the MIC80 [5] was 16 µg/mL (≈ 62 µM) and the MIC80 [6] was 16 µg/mL (≈ 62 µM). It also gave an MIC80 [7] of 16 µg/mL (≈ 62 µM), a fractional inhibitory concentration index (FICI) [14] of 0.03 and a fractional inhibitory concentration index (FICI) [15] of 0.02. For the same compound, the fractional inhibitory concentration index (FICI) [16] was 0.01, the fractional inhibitory concentration index (FICI) [17] was 0.02 and the fractional inhibitory concentration index (FICI) [18] was 0.04. For the same compound, the fractional inhibitory concentration index (FICI) [19] was 0.02, the fold change (FC) [20] was > 256 and the inhibition [21] was “Active”. For the same compound, the inhibition [22] was “Active”, the fold change (FC) [23] was 0.4 and the fold change (FC) [24] was 0.5. It also gave a fold change (FC) [25] of 2, a fold change (FC) [26] of 3.6 and an MIC80 [27] of 0.25 µg/mL. It also gave an MIC80 [28] of 0.25 µg/mL, an MIC80 [29] of 0.125 µg/mL and an MIC80 [30] of 0.125 µg/mL. The MIC80 [31] was 0.125 µg/mL and the MIC80 [32] was 0.125 µg/mL.
